Values quoted from earlier work in patent US20220000855A1, “AN AURORA A KINASE INHIBITOR FOR USE IN THE TREATMENT OF NEUROBLASTOMA” (Eli Lilly and Company, priority 2018, published 2022).

Settings: background statement

Compound | neutropenia and other toxic effects associated with use
Cc1cc(Nc2cc(N3CCN(C)CC3)nc(Sc3ccc(NC(=O)C4CC4)cc3)n2)[nH]n1 [tozasertib] | unacceptably high levels of neutropenia and other toxic effects
COc1cc(Nc2ncc3c(n2)-c2ccc(Cl)cc2C(c2c(F)cccc2OC)=NC3)ccc1C(=O)O [alisertib] | unacceptably high levels of neutropenia and other toxic effects
